What is called pEC50 is the EC50 on a negative log10 scale, so that one unit is a factor of ten.

pEC50: −log10 of the molar value. A value given as a limit tells only on which side of the number the result lay.

This is an account of results in patent US12122761B2, “2-azaspiro[3.4]octane derivatives as M4 agonists” (NOVARTIS AG, priority 2019, dated 2024).

The target in this experiment is T1, human cloned CHRM4 receptor (M4_CHO cells) (Homo sapiens, UniProt P08173).
T1 construct: expressed in transfected cells; host or cells: CHO-K1
T1 sequence (P08173 1-479): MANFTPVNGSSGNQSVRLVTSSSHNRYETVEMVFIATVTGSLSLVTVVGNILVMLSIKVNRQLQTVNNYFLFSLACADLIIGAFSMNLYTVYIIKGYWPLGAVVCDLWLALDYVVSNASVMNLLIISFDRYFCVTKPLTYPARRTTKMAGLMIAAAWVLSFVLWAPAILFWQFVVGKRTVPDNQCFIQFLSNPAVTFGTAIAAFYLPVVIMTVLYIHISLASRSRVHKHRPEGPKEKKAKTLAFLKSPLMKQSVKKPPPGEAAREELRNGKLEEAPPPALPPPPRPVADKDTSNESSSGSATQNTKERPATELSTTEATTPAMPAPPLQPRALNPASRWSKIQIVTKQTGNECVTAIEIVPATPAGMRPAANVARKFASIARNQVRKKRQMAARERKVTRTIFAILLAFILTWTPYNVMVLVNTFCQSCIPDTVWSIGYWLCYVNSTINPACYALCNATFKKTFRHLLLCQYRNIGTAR
Briefly: CHRM4 Ca++ Flux Assay (agonist mode, FDSS 7000EX). The experiment is classed as cell-based. The following applies: for Emax: Percent Activity, read-out: M4 FDSS PA; for pEC50: geometric mean if tested more than once, read-out: M4 FDSS EC50. A digest of the protocol: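 M4_CHO cells loaded with a Ca++ dye for at least 1 h were held 60 min at room temperature in HEPES/probenecid buffer with 20 μM ATP. Ca++ flux after an 11-point compound dose, in triplicate and agonist mode, was recorded over 3 min. Four-parameter fits gave curves, with activity expressed relative to the Carbachol EC100.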

Take `Fc1ccc(C2CCOC2)c(C2CCN([C@@H]3CCC4(C3)CN(c3nnco3)C4)CC2)c1` (mixture of isomers) [Example 2J, 2-((6R)-6-(4-(5-fluoro-2-(tetrahydrofuran-3-yl)phenyl)piperidin-1-yl)-2-azaspiro[3.4]octan-2-yl)-1,3,4-oxadiazole]: the Emax amounted to 92% and the pEC50 is 8.70.
The matching figures for `O=C(C1COC1)N1CC2(CC[C@H](N3CCC(c4ccccc4OC(F)(F)F)CC3)C2)C1` (single isomer, unassigned) [Example 8G]: 24% and 6.56.
Take `O=C(N1CC2(CC[C@H](N3CCC(c4ccccc4C4CCOCC4)CC3)C2)C1)C1(F)CC1` (single isomer, unassigned) [Example 9M]: the Emax amounted to 35% and the pEC50 is 7.00.
The like results for `c1ccc(C2CCN([C@H]3CCC4(C3)CN(c3nnco3)C4)CC2)c(C2CCOCC2)c1` (single isomer, unassigned) [Example 10T] were, in that order, 67% and 6.77.
For `c1ccc(C2CCN([C@@H]3CCC4(C3)CN(c3nnco3)C4)CC2)c(OC2CC3(COC3)C2)c1` [Example 1A, (R)-2-(6-(4-(2-((2-oxaspiro[3.3]heptan-6-yl)oxy)phenyl)piperidin-1-yl)-2-azaspiro[3.4]octan-2-yl)-1,3,4-oxadiazole], the Emax stood at 81% and the pEC50 is 9.00.
On to `c1ccc(C2CCN([C@@H]3CCC4(C3)CN(c3nnco3)C4)CC2)c(OC2COC2)c1` [Example 1D, (R)-2-(6-(4-(2-(oxetan-3-yloxy)phenyl)piperidin-1-yl)-2-azaspiro[3.4]octan-2-yl)-1,3,4-oxadiazole], for which the Emax was 79% and the pEC50 was 9.00.
In the case of `c1ccc(C2CCN([C@@H]3CCC4(C3)CN(c3nnco3)C4)CC2)c(OC[C@@H]2COCCO2)c1` [Example 1E, 2-((R)-6-(4-(2-(((S)-1,4-dioxan-2-yl)methoxy)phenyl)piperidin-1-yl)-2-azaspiro[3.4]octan-2-yl)-1,3,4-oxadiazole], the Emax came out at 72% and the pEC50 was 9.00.
The matching figures for `CC(C)(O)CCOc1ccccc1C1CCN([C@@H]2CCC3(C2)CN(c2nnco2)C3)CC1` [Example 1F]: 48% and 8.40.
The like results for `c1ccc(C2CCN([C@@H]3CCC4(C3)CN(c3nncs3)C4)CC2)c(OCC2COC2)c1` [Example 1G, (R)-2-(6-(4-(2-(oxetan-3-ylmethoxy)phenyl)piperidin-1-yl)-2-azaspiro[3.4]octan-2-yl)-1,3,4-thiadiazole] were, in that order, 82% and 9.00.
With `FC1(COc2ccccc2C2CCN([C@@H]3CCC4(C3)CN(c3nncs3)C4)CC2)COC1` [Example 1H, (R)-2-(6-(4-(2-((3-fluorooxetan-3-yl)methoxy)phenyl)piperidin-1-yl)-2-azaspiro[3.4]octan-2-yl)-1,3,4-thiadiazole], the Emax is 71% and the negative logarithm of the EC50 (pEC50) was 9.00.
Take `c1ccc(C2CCN([C@@H]3CCC4(C3)CN(c3nncs3)C4)CC2)c(OCC2CCOCC2)c1` [Example 1I, (R)-2-(6-(4-(2-((tetrahydro-2H-pyran-4-yl)methoxy)phenyl)piperidin-1-yl)-2-azaspiro[3.4]octan-2-yl)-1,3,4-thiadiazole]: the Emax is 61% and the pEC50 was 8.40.
The matching figures for `FC1(COc2ccccc2C2CCN([C@@H]3CCC4(C3)CN(c3nncs3)C4)CC2)CCOCC1` [Example 1J, (R)-2-(6-(4-(2-((4-fluorotetrahydro-2H-pyran-4-yl)methoxy)phenyl)piperidin-1-yl)-2-azaspiro[3.4]octan-2-yl)-1,3,4-thiadiazole]: 50% and 8.22.
Turning to `c1ccc(C2CCN([C@@H]3CCC4(C3)CN(c3cncnc3)C4)CC2)c(OC2COC2)c1` [Example 1K, (R)-6-(4-(2-(oxetan-3-yloxy)phenyl)piperidin-1-yl)-2-(pyrimidin-5-yl)-2-azaspiro[3.4]octane], the Emax amounted to 74% and the pEC50 was 9.00.
The matching figures for `c1ccc(C2CCN([C@@H]3CCC4(C3)CN(c3cncnc3)C4)CC2)c(OC2CCOCC2)c1` [Example 1L, (R)-2-(pyrimidin-5-yl)-6-(4-(2-((tetrahydro-2H-pyran-4-yl)oxy)phenyl)piperidin-1-yl)-2-azaspiro[3.4]octane]: 67% and 8.70.
The like results for `c1ccc(C2CCN([C@@H]3CCC4(C3)CN(c3cncnc3)C4)CC2)c(OCC2CCOCC2)c1` [Example 1M, (R)-2-(pyrimidin-5-yl)-6-(4-(2-((tetrahydro-2H-pyran-4-yl)methoxy)phenyl)piperidin-1-yl)-2-azaspiro[3.4]octane] were, in that order, 53% and 8.52.
The like results for `c1ccc(C2CCN([C@@H]3CCC4(C3)CN(c3cncnc3)C4)CC2)c(OCC2COC2)c1` [Example 1N, (R)-6-(4-(2-(oxetan-3-ylmethoxy)phenyl)piperidin-1-yl)-2-(pyrimidin-5-yl)-2-azaspiro[3.4]octane] were, in that order, 62% and over 9.40.
As for `c1ccc(C2CCN([C@@H]3CCC4(C3)CN(c3cncnc3)C4)CC2)c(OC2CC3(COC3)C2)c1` [Example 1O, (R)-6-(4-(2-((2-oxaspiro[3.3]heptan-6-yl)oxy)phenyl)piperidin-1-yl)-2-(pyrimidin-5-yl)-2-azaspiro[3.4]octane], the Emax was determined as 59% and the negative-log EC50 (pEC50) was 8.52.
Regarding `c1ccc(C2CCN([C@@H]3CCC4(C3)CN(c3cncnc3)C4)CC2)c(O[C@@H]2CCOC2)c1` [Example 1P, (R)-2-(pyrimidin-5-yl)-6-(4-(2-(((R)-tetrahydrofuran-3-yl)oxy)phenyl)piperidin-1-yl)-2-azaspiro[3.4]octane], the Emax was found to be 61% and the negative logarithm of the EC50 (pEC50) is 9.00.
The like results for `CC(C)(O)COc1ccccc1C1CCN([C@@H]2CCC3(C2)CN(c2nnco2)C3)CC1` [Example 2A, (R)-1-(2-(1-(2-(1,3,4-oxadiazol-2-yl)-2-azaspiro[3.4]octan-6-yl)piperidin-4-yl)phenoxy)-2-methylpropan-2-ol] were, in that order, 69% and 8.00.
The like results for `c1ccc(C2CCN([C@@H]3CCC4(C3)CN(c3nnco3)C4)CC2)c(O[C@@H]2CCOC2)c1` [Example 2B, 2-((R)-6-(4-(2-(((R)-tetrahydrofuran-3-yl)oxy)phenyl)piperidin-1-yl)-2-azaspiro[3.4]octan-2-yl)-1,3,4-oxadiazole] were, in that order, 95% and over 9.40.
In the case of `COCCOc1ccccc1C1CCN([C@@H]2CCC3(C2)CN(c2nnco2)C3)CC1` [Example 2C], the Emax is 72% and the pEC50 was 9.00.
With `FC1(COc2ccccc2C2CCN([C@@H]3CCC4(C3)CN(c3nnco3)C4)CC2)CCOCC1` [Example 2D, (R)-2-(6-(4-(2-((4-fluorotetrahydro-2H-pyran-4-yl)methoxy)phenyl)piperidin-1-yl)-2-azaspiro[3.4]octan-2-yl)-1,3,4-oxadiazole], the Emax was found to be 72% and the pEC50 was 9.00.
The matching figures for `CC1(COc2ccccc2C2CCN([C@@H]3CCC4(C3)CN(c3nnco3)C4)CC2)CCOCC1` [Example 2E, (R)-2-(6-(4-(2-((4-methyltetrahydro-2H-pyran-4-yl)methoxy)phenyl)piperidin-1-yl)-2-azaspiro[3.4]octan-2-yl)-1,3,4-oxadiazole]: 86% and 8.70.
The like results for `c1ccc(C2CCN([C@@H]3CCC4(C3)CN(c3nnco3)C4)CC2)c(OC2CCOCC2)c1` [Example 2F, (R)-2-(6-(4-(2-((tetrahydro-2H-pyran-4-yl)oxy)phenyl)piperidin-1-yl)-2-azaspiro[3.4]octan-2-yl)-1,3,4-oxadiazole] were, in that order, 88% and 8.15.
The like results for `c1ccc(C2CCN([C@@H]3CCC4(C3)CN(c3nnco3)C4)CC2)c(OCC2CCOCC2)c1` [Example 2G, (R)-2-(6-(4-(2-((tetrahydro-2H-pyran-4-yl)methoxy)phenyl)piperidin-1-yl)-2-azaspiro[3.4]octan-2-yl)-1,3,4-oxadiazole] were, in that order, 70% and 8.15.
Regarding `c1ccc(C2CCN([C@@H]3CCC4(C3)CN(c3nnco3)C4)CC2)c(C2CCOCC2)c1` [Example 2H, (R)-2-(6-(4-(2-(tetrahydro-2H-pyran-4-yl)phenyl)piperidin-1-yl)-2-azaspiro[3.4]octan-2-yl)-1,3,4-oxadiazole], the Emax was 83% and the pEC50 was 8.52.
In the case of `Fc1ccc(C2CCOCC2)c(C2CCN([C@@H]3CCC4(C3)CN(c3nnco3)C4)CC2)c1` [Example 2I, (R)-2-(6-(4-(5-fluoro-2-(tetrahydro-2H-pyran-4-yl)phenyl)piperidin-1-yl)-2-azaspiro[3.4]octan-2-yl)-1,3,4-oxadiazole], the Emax was 96% and the pEC50 is 9.00.
The like results for `c1ccc(C2CCOC2)c(C2CCN([C@@H]3CCC4(C3)CN(c3nnco3)C4)CC2)c1` (stereo partly drawn) [Example 2K, 2-((6R)-6-(4-(2-(tetrahydrofuran-3-yl)phenyl)piperidin-1-yl)-2-azaspiro[3.4]octan-2-yl)-1,3,4-oxadiazole] were, in that order, 93% and 8.52.
